# pIC50, pKi: −log10 of the molar value. Numbered stars: 1 amine (or outer) side, 2 acyl side, 3 side chain; on linkers, the order of the positions; unused ones are H or OH. Square brackets hold non-standard residues; d marks the D form. Peptide text beside a SMILES is read from it. X1 = O=C([C@H]1CCCN1C[C@@H](O)[C@@H](Cc1ccccc1)N[*:1])[*:2]
# Tests used:
# [1] = molecular target: T1, Human immunodeficiency virus type 1 protease (Human immunodeficiency virus 1, UniProt Q72874); experiment: In vitro inhibition of HIV protease, using a peptide hydrolysis assay
# [2] = molecular target: T1, Human immunodeficiency virus type 1 protease; experiment: In vitro inhibition of HIV-Protease, using a peptide hydrolysis assay
compound,measurement,setting,value
CC(C)(C)OC(=O)N[C@@H](Cc1ccccc1)[C@H](O)CN[C@@H](Cc1ccccc1)C(=O)N[C@H]1c2ccccc2C[C@H]1O,pIC50,[1],6.60
NC(=O)CC(N)C(=O)N[C@@H](Cc1ccccc1)[C@H](O)CN[C@@H](Cc1ccccc1)C(=O)NC1c2ccccc2C[C@H]1O (stereo not given in full),pIC50,[2],5.96
CC(C)(C)OC(=O)N[C@@H](Cc1ccccc1)[C@H](O)CN1C[C@H]2CCCC[C@H]2C[C@H]1C(=O)NC1c2ccccc2CC1O (stereo not given in full),pIC50,[2],< 5.52
CC(C)(C)OC(=O)N[C@@H](Cc1ccccc1)C(O)CNC(Cc1ccccc1)C(=O)NC(CO)c1ccccc1 (stereo not given in full),pIC50,[1],4.42
NC(=O)CC(NC(=O)c1ccc2ccccc2n1)C(=O)N[C@@H](Cc1ccccc1)[C@H](O)CN[C@@H](Cc1ccccc1)C(=O)NC1c2ccccc2C[C@H]1O (stereo not given in full),pIC50,[2],8.27
CC(C)(C)OC(=O)N[C@@H](Cc1ccccc1)[C@H](O)CNC(C(=O)N[C@H]1c2ccccc2C[C@H]1O)C(O)c1ccccc1 (stereo in doubt; 13),pIC50,[1],5.07
CC[C@H](C)[C@H](NC(=O)[C@H]1CCCN1C[C@@H](O)[C@@H](Cc1ccccc1)NC(=O)[C@H](CC(N)=O)NC(=O)[C@H](CC(C)C)NC(=O)[C@@H](N)CO)C(=O)N[C@H](C(=O)OC)C(C)C (H-SLN[X1]IV-OMe),pKi,[2],9.62
CC(C)(C)OC(=O)N[C@@H](Cc1ccccc1)[C@H](O)CN[C@H](Cc1ccccc1)C(=O)N[C@H]1c2ccccc2C[C@H]1O,pIC50,[1],5.14
CC(C)(C)OC(=O)N[C@@H](Cc1ccccc1)[C@@H](O)CN[C@@H](Cc1ccccc1)C(=O)N[C@H]1c2ccccc2C[C@H]1O,pIC50,[1],5.33
CC(C)(C)OC(=O)N[C@@H](Cc1ccccc1)[C@H](O)CNC(C(=O)N[C@H]1c2ccccc2C[C@H]1O)C(O)c1ccccc1 (stereo in doubt; 12),pIC50,[1],5.07
CC(C)(C)NC(=O)C(Cc1ccccc1)NCC(O)[C@H](Cc1ccccc1)NC(=O)OC(C)(C)C (stereo not given in full),pIC50,[2],< 4.00
CC(C)(C)OC(=O)N[C@@H](Cc1ccccc1)[C@@H](O)CN[C@H](Cc1ccccc1)C(=O)N[C@H]1c2ccccc2C[C@H]1O,pIC50,[1],4.63
N[C@@H](Cc1ccccc1)C(O)CN[C@@H](Cc1ccccc1)C(=O)NC1c2ccccc2C[C@H]1O (stereo not given in full),pIC50,[2],4.20
CC(C)(C)OC(=O)NC(CC(N)=O)C(=O)N[C@@H](Cc1ccccc1)C(O)CN[C@@H](Cc1ccccc1)C(=O)NC1c2ccccc2C[C@H]1O (stereo not given in full),pIC50,[2],6.53
CC(C)(C)NC(=O)[C@@H]1C[C@@H]2CCCC[C@@H]2CN1C[C@@H](O)[C@H](Cc1ccccc1)NC(=O)OC(C)(C)C,pIC50,[2],< 5.52

# Source: ChEMBL document CHEMBL1125473, “A series of potent HIV-1 protease inhibitors containing a hydroxyethyl secondary amine transition state isostere: synthesis, enzyme inhibition, and antiviral activity” (J Med Chem, 1992)
